From patent publication US8999974B2, “Acyl piperazine derivatives as TTX-S blockers” (Raqualia Pharma Inc., priority 2010, dated 2015)

Target: T1, human NaV1.3 (Homo sapiens, UniProt Q9NY46)
T1 construct: expressed in transfected cells; host or cells: HEK293
Assay: FRET assay (EFS, FDSS) on HEK293 cells expressing human NaV1.3 channels
Type: cell-based
Conditions: FRET assay, HEK293 cells expressing human NaV1.3; read-out: IC50 against Nav1.3
Procedure: This screen was used to determine the effects of compounds on human NaV1.3, human Nav1.7, and human Nav1.5 channels, utilising electrical field stimulation (EFS) system in 96-well plate format on FDSS (Hamamatsu Photonics) platform. The change of membrane potential was monitored with FRET dye pair, oxonol (DiSBAC2(3)) and coumarin (CC2-DMPE).
Each HEK293 cells expressing human NaV1.3 channels and HEK293 cells expressing human NaV1.5 channels were grown in T225 flasks, in a 5% CO2 humidified incubator to about 80% confluence. Media composition consisted of Dulbecco's Modified Eagle Medium (high glucose), 10% FCS, 100 units/ml Penicillin, 100 microgram/ml Streptomycin and 500 microgram/ml Geneticine.
Protocol: • Seeded each cell lines (1×10^5 cells/well) into poly-D-lysine coated 96-well plates prior to experimentation. • Incubated at 37° C. in 5% CO2 for 24 hours. • Washed each well with assay buffer (140 mM NaCl, 4.5 mM KCl, 10 mM D-Glucose, 2 mM CaCl2, 1 mM MgCl2, 10 mM HEPES, pH 7.4 adjusted with NaOH) twice. • Added 1st loading solution containing 10 microM CC2-DMPE and 0.06% Pluronic F-127 in assay buffer. • Incubated the plate at room temperature in dark for 1 hour. • Removed 1st loading solution and added 2nd loading solution containing 15 microM DiSBAC2(3), 0.555 mM VABSC-1 and 0.004% Pluronic F-127 in assay buffer. • Placed the plate under the dark at room temperature for 25 minutes. • Added compound solutions into the assay plate. • Set the assay plate in FDSS and placed an EFS device on the plate. • Measured EFS-induced fluorescent response by FDSS.
The data were analyzed and reported as normalized ratios of intensities measured at […]. The process of calculating these ratios was performed as follows:
[formula] This analysis was performed using a computerized specific program designed for FDSS generated data. Fluorescence ratio values were plotted using XLfit to determine an IC50 value for each compound.

T1 sequence (Q9NY46 whole entry): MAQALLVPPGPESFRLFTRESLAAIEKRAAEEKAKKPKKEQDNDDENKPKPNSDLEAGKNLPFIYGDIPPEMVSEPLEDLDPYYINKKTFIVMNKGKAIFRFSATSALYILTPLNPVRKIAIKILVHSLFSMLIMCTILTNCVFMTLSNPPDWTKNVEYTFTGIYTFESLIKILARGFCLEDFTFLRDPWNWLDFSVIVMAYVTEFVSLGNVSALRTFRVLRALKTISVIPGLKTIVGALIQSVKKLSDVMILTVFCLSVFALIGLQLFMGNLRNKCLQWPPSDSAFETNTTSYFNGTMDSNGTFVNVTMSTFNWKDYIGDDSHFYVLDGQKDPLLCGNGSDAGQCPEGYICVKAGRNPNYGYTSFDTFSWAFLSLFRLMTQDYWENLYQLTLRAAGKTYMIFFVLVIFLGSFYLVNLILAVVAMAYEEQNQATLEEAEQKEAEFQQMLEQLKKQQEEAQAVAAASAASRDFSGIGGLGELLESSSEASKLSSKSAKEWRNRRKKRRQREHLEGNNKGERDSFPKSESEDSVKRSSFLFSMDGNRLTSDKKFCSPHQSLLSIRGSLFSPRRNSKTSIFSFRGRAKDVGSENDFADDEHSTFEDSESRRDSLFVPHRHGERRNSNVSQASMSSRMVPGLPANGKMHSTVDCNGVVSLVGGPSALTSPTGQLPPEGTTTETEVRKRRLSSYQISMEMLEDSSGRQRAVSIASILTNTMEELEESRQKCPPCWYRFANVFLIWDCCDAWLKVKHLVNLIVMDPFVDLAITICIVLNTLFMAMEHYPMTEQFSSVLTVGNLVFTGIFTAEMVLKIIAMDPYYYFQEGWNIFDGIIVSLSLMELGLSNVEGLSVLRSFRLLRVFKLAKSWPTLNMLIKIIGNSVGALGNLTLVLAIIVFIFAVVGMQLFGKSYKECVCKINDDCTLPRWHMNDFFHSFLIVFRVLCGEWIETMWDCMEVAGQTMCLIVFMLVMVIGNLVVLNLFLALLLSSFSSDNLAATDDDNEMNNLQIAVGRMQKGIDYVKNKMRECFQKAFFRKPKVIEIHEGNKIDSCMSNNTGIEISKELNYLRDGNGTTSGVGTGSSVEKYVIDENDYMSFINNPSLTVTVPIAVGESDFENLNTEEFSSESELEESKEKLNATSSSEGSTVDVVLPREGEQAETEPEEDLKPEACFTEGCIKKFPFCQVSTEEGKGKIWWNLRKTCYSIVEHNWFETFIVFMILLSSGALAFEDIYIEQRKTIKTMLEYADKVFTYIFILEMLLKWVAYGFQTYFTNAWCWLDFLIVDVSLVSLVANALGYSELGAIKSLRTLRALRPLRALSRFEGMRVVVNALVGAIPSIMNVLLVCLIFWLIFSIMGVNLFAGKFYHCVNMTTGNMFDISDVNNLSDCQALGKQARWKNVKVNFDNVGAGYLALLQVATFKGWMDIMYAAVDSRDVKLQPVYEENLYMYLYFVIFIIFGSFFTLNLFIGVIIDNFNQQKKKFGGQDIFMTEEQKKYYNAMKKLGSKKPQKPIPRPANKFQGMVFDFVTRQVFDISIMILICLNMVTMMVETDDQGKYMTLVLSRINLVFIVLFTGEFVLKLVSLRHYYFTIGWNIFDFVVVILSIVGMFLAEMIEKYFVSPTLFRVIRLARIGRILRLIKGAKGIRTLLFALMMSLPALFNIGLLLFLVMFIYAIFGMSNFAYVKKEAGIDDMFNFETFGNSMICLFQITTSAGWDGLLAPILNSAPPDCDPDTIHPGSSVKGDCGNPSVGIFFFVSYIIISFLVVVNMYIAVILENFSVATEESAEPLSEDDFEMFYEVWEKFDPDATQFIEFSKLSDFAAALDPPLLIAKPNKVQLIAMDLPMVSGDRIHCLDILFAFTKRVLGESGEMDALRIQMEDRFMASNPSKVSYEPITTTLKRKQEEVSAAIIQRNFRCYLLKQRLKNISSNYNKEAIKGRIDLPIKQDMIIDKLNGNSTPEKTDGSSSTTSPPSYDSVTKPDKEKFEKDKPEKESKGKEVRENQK

| SMILES | IC50 [µM] |
| --- | --- |
| CC(C)COc1cc(N2CCN(C(=O)C(O)Cc3ccccc3)CC2)ncn1 (stereo in doubt) [Example 5, (R)-2-hydroxy-1-(4-(6-isobutoxypyrimidin-4-yl)piperazin-1-yl)-3-phenylpropan-1-one] | < 3 |
| CC(C)COc1cc(N2CCN(C(=O)C(NC(=O)OC(C)(C)C)c3ccccc3)CC2)ncn1 (stereo in doubt) [Example 11, (R)-tert-butyl (2-(4-(6-isobutoxypyrimidin-4-yl)piperazin-1-yl)-2-oxo-1-phenylethyl)carbamate] | < 3 |
| Cc1ccc(C(=O)N2CCN(c3cc(OC4CCCC4)ncn3)CC2)cc1F [Example 7] | < 3 |
| CC(C)COc1cc(N2CCN(C(=O)c3cccc4[nH]ccc34)CC2)ncn1 [Example 9, (1H-indol-4-yl)(4-(6-isobutoxypyrimidin-4-yl)piperazin-1-yl)methanone] | < 3 |
| CC(C)COc1cc(N2CCN(C(=O)c3cc(C(F)(F)F)nn3C)CC2)ncn1 [Example 14, (4-(6-isobutoxypyrimidin-4-yl)piperazin-1-yl)(1-methyl-3-(trifluoromethyl)-1H-pyrazol-5-yl)methanone] | < 3 |
| Cc1ccc(C(=O)N2CCN(c3cc(OC4CCC4)ncn3)CC2)cc1F [Example 16] | < 3 |
| CC(C)COc1cc(N2CCN(C(=O)c3ccc4ccccc4n3)CC2)ncn1 [Example 18, (4-(6-isobutoxypyrimidin-4-yl)piperazin-1-yl)(quinolin-2-yl)methanone] | < 3 |
| CC(C)COc1cc(N2CCN(C(=O)c3nc4ccccc4n3C)CC2)ncn1 [Example 23, (4-(6-isobutoxypyrimidin-4-yl)piperazin-1-yl)(1-methyl-1H-benzo[d]imidazol-2-yl)methanone] | < 3 |
| Cn1nc(C(=O)N2CCN(c3cc(OCC(F)(F)F)ncn3)CC2)cc1C(F)(F)F [Example 29, (1-methyl-5-(trifluoromethyl)-1H-pyrazol-3-yl)(4-(6-(2,2,2-trifluoroethoxy)pyrimidin-4-yl)piperazin-1-yl)methanone] | < 3 |
| Cn1nc(C(=O)N2CCN(c3cc(OCC(F)(F)F)ncn3)CC2)c2ccccc21 [Example 30, (1-methyl-1H-indazol-3-yl)(4-(6-(2,2,2-trifluoroethoxy)pyrimidin-4-yl)piperazin-1-yl)methanone] | < 3 |
| CC(C)COc1cc(N2CCN(C(=O)c3cnc4ccccc4n3)CC2)ncn1 [Example 34, (4-(6-isobutoxypyrimidin-4-yl)piperazin-1-yl)(quinoxalin-2-yl)methanone] | < 3 |
| Cn1nc(C(=O)N2CCN(c3cc(OC4CCC4)ncn3)CC2)c2ccccc21 [Example 38, (4-(6-cyclobutoxypyrimidin-4-yl)piperazin-1-yl)(1-methyl-1H-indazol-3-yl)methanone] | < 3 |
| CC(C)COc1cc(N2CCN(C(=O)C(C)Oc3ccc(F)cc3)CC2)ncn1 (stereo not shown) [Example 48, 2-(4-fluorophenoxy)-1-(4-(6-isobutoxypyrimidin-4-yl)piperazin-1-yl)propan-1-one] | < 3 |
| CC(C)COc1cc(N2CCN(C(=O)c3cccc(N4CCCC4)n3)CC2)ncn1 [Example 52, (4-(6-isobutoxypyrimidin-4-yl)piperazin-1-yl)(6-(pyrrolidin-1-yl)pyridin-2-yl)methanone] | < 3 |
| CC(C)COc1cc(N2CCN(C(=O)OCc3ccccc3)CC2)ncn1 [Example 53, benzyl 4-(6-isobutoxypyrimidin-4-yl)piperazine-1-carboxylate] | < 3 |
| CC(C)COc1cc(N2CCN(C(=O)CN3C(=O)COc4ccccc43)CC2)ncn1 [Example 57, 4-(2-(4-(6-isobutoxypyrimidin-4-yl)piperazin-1-yl)-2-oxoethyl)-2H-benzo[b][1,4]oxazin-3(4H)-one] | < 3 |
| CC(C)COc1cc(N2CCN(C(=O)Cc3noc4ccccc34)CC2)ncn1 [Example 58, 2-(benzo[d]isoxazol-3-yl)-1-(4-(6-isobutoxypyrimidin-4-yl)piperazin-1-yl)ethanone] | < 3 |
| CC(C)COc1cc(N2CCN(C(=O)CCN3Cc4ccccc4C3=O)CC2)ncn1 [Example 61, 2-(3-(4-(6-isobutoxypyrimidin-4-yl)piperazin-1-yl)-3-oxopropyl)isoindolin-1-one] | < 3 |
| COCCn1c(C(=O)N2CCN(c3cc(OCC(C)C)ncn3)CC2)cc2ccccc21 [Example 62, (4-(6-isobutoxypyrimidin-4-yl)piperazin-1-yl)(1-(2-methoxyethyl)-1H-indol-2-yl)methanone] | < 3 |

| SMILES | IC50 [µM] |
| --- | --- |
| COc1cc(C(=O)N2CCN(c3cc(OCC(F)(F)F)ncn3)CC2)nc2ccccc12 [Example 63, (4-methoxyquinolin-2-yl)(4-(6-(2,2,2-trifluoroethoxy)pyrimidin-4-yl)piperazin-1-yl)methanone] | < 3 |
| O=C(c1n[nH]c2ccccc12)N1CCN(c2cc(OCC(F)(F)F)ncn2)CC1 [Example 68, (1H-indazol-3-yl)(4-(6-(2,2,2-trifluoroethoxy)pyrimidin-4-yl)piperazin-1-yl)methanone] | < 3 |
| COc1cccc(C(=O)NCC(=O)N2CCN(c3cc(OCC(C)C)ncn3)CC2)n1 [Example 73, N-(2-(4-(6-isobutoxypyrimidin-4-yl)piperazin-1-yl)-2-oxoethyl)-6-methoxypicolinamide] | < 3 |
| CC(C)COc1cc(N2CCN(C(=O)COc3cccc4ncccc34)CC2)ncn1 [Example 78, 1-(4-(6-isobutoxypyrimidin-4-yl)piperazin-1-yl)-2-(quinolin-5-yloxy)ethanone] | < 3 |
| O=C(c1cnc2ccccc2n1)N1CCN(c2cc(OC3CCC3)ncn2)CC1 [Example 82, (4-(6-cyclobutoxypyrimidin-4-yl)piperazin-1-yl)(quinoxalin-2-yl)methanone] | < 3 |
| O=C(c1ccc2cccc(O)c2n1)N1CCN(c2cc(OC3CCC3)ncn2)CC1 [Example 83, (4-(6-cyclobutoxypyrimidin-4-yl)piperazin-1-yl)(8-hydroxyquinolin-2-yl)methanone] | < 3 |
| O=C(NCC(=O)N1CCN(c2cc(OC3CCC3)ncn2)CC1)c1ccccc1 [Example 85, N-(2-(4-(6-cyclobutoxypyrimidin-4-yl)piperazin-1-yl)-2-oxoethyl)benzamide] | < 3 |
| Cc1cc(C(=O)N2CCN(c3cc(OCC(C)C)ncn3)CC2)nn1-c1ccccc1 [Example 91] | < 3 |
| CC(C)COc1cc(N2CCN(C(=O)c3ccc(-c4cnco4)cc3)CC2)ncn1 [Example 92] | < 3 |
| CC(C)COc1cc(N2CCN(C(=O)c3ccc(-n4cccn4)cc3)CC2)ncn1 [Example 93, (4-(1H-pyrazol-1-yl)phenyl)(4-(6-isobutoxypyrimidin-4-yl)piperazin-1-yl)methanone] | < 3 |
| Cc1ccc(C(=O)N2C[C@@H]3C[C@H]2CN3c2cc(OCC(C)C)ncn2)cc1F [Example 94, (3-fluoro-4-methylphenyl)((1S,4S)-5-(6-isobutoxypyrimidin-4-yl)-2,5-diazabicyclo[2.2.1]heptan-2-yl)methanone] | < 3 |
| CC(C)COc1cc(N2CCN(C(=O)COc3cccc(F)c3)CC2)ncn1 [Example 96, 2-(3-fluorophenoxy)-1-(4-(6-isobutoxypyrimidin-4-yl)piperazin-1-yl)ethanone] | < 3 |
| CC(C)COc1cc(N2CCN(C(=O)COc3ccc(F)c(F)c3)CC2)ncn1 [Example 97, 2-(3,4-difluorophenoxy)-1-(4-(6-isobutoxypyrimidin-4-yl)piperazin-1-yl)ethanone] | < 3 |
| CC(C)COc1cc(N2CCN(C(=O)CN3CCc4ccccc4C3=O)CC2)ncn1 [Example 98, 2-(2-(4-(6-isobutoxypyrimidin-4-yl)piperazin-1-yl)-2-oxoethyl)-3,4-dihydroisoquinolin-1(2H)-one] | < 3 |
| CC(C)COc1cc(N2CCN(C(=O)Cc3cn(C)c4ccccc34)CC2)ncn1 [Example 101, 1-(4-(6-isobutoxypyrimidin-4-yl)piperazin-1-yl)-2-(1-methyl-1H-indol-3-yl)ethanone] | < 3 |
| CC(C)COc1cc(N2CCN(C(=O)COCc3ccccc3)CC2)ncn1 [Example 106, 2-(benzyloxy)-1-(4-(6-isobutoxypyrimidin-4-yl)piperazin-1-yl)ethanone] | < 3 |
| O=C(Cc1noc2ccccc12)N1CCN(c2cc(OCC(F)(F)F)ncn2)CC1 [Example 107, 2-(benzo[d]isoxazol-3-yl)-1-(4-(6-(2,2,2-trifluoroethoxy)pyrimidin-4-yl)piperazin-1-yl)ethanone] | < 3 |
| O=C(Cc1noc2ccccc12)N1CCN(c2cc(OC3CCC3)ncn2)CC1 [Example 111, 2-(benzo[d]isoxazol-3-yl)-1-(4-(6-cyclobutoxypyrimidin-4-yl)piperazin-1-yl)ethanone] | < 3 |
